Measurements published in PMC3413433, “A novel cytarabine crystalline lipid prodrug: Hexadecyloxypropyl cytarabine 3′,5′-cyclic monophosphate for proliferative vitreoretinopathy” (Molecular Vision, 2012).
Several values for one entry are separate records, joined by “and”; a condition that tells them apart may be missing. Equal entries are not always repeated. Entries after “also recorded” stand apart in the source; their conditions may differ. Marks after values point to notes of the source that are not given here.

Legend:
herpes simplex virus = system: herpes simplex virus; set-up: method as in PMID 15505067; settings: single intravitreal injection; cited from earlier work
experimental PVR = system: experimental PVR; set-up: method as in PMID 10359331; settings: intravitreal injection; cited from earlier work
ARPE-19 cells = experiment: Cell proliferation assay (ARPE-19/WST-1); type: cell-based; settings: Homo sapiens, 120 h, 5 days, WST-1, read-out: 50% cytotoxicity concentration (CC50)
Procedure: (§1) Human retinal pigment epithelium (ARPE-19) cells were obtained from the American Type Culture Collection (ATCC; Manassas, VA). A rat Müller cell line, rMC-1, was provided by Dr. Gabe Silva at UC San Diego (originally obtained from Dr. Vijay Sarthy, Northwestern University, Chicago, IL). ARPE-19 cells were cultured in Dulbecco’s modified Eagle medium (DMEM)/F12 and rMC-1 in DMEM. DMEM/F12 medium and DMEM were maintained at 37 °C in a humidified chamber of 5% CO2. All culture media were supplemented with 10% fetal bovine serum, 100 U/ml penicillin, and 100 µg/ml streptomycin. The cell lines were chosen due to their dominant presence in the pathology of proliferative vitreoretinopathy.
ARPE-19 cells were plated in 96-well plates at […] per well. Serial dilutions of the compounds were added to the wells in a total volume of 100 µl. The plates were maintained in a 37 °C incubator. After 5 days, 10 µl of a solution of WST-1 (Roche Diagnostics, Indianapolis, IN) was added to each well, and the plates returned to the incubator for 0.5 h, after which the OD450 of each well was measured. Percent inhibition data were obtained from at least three experiments with at least six wells at each concentration in separate 96-well plates. […] The results were expressed as the percentage of the optical density of treated cells relative to that of untreated controls.

[1] = Simulated intravitreal clearance kinetics (dissolution chamber); type: in vitro ADME
Procedure: Dissolution starting from an intravitreal drug depot was simulated using a custom chamber and a syringe pump. The drug powder (600 µg) was weighed into the chamber, which had 1.5 ml of effective circulation volume to mimic the rabbit vitreous. The chamber was filled with 1.5 ml of Hank’s Balanced Salt Solution (HBSS). The chamber was then connected by tubing to a NE-1000 syringe pump (New Era Pump Systems, Farmingdale, NY) on one end and open tubing on the other end so that the solution could be collected into a vial (Figure 1). The syringe pump was set to a flow rate of 2 µl/min [12], and the syringe filled with HBSS. The entire setup was maintained at 37 °C and pumped continuously. This dissolution chamber mimics the rabbit vitreous fluid turnover only. […] At the same time every day, the vial was changed and the contents collected and stored at −80 °C until liquid chromatography/mass spectrometry (LC/MS) was performed.
Figure 1 The dissolution chamber is made of poly methyl methacrylate. Inlet tubing connects from a syringe pump to the upper part of the chamber, and the outlet tubing leaves from the lower part of the chamber to the sample collector. In the center of the dissolution chamber, a titanium mesh circle is installed to prevent the large drug particles reaching the lower chamber to possibly clog the outgoing tubing. The mesh contains […].

rat eyes = experiment: Toxicity study of HDP-P-Ara-C in rat eyes (intravitreal injection); type: in vivo
Procedure: Twelve Brown Norway rats were used to evaluate the effect of intravitreal HDP-P-Ara-C versus control injection. […] Only one eye of each rat was injected with the drug, and the fellow eye was injected with saline as control. Electroretinograms (ERGs) were obtained before drug injection and 1 day before scheduled sacrifice. Following injection, toxicity and safety were evaluated with indirect ophthalmoscopy, biomicroscopy, and fundus photography. At week 2 following drug injections, all of the rats were euthanized with intraperitoneal injection of ketamine (100 mg/kg) and xylazine (10 mg/kg) followed by intraperitoneal injection of 120 mg/kg sodium pentobarbital. Six eyes were used for pathologic evaluation and six eyes used for evaluation of vitreous drug level. Vitreous drug levels were determined at the end of the experiment using high-performance liquid chromatography (HPLC).
(§2) Intraocular pressure (IOP) measurements and ERG recordings were repeated measurement data. Therefore, generalized estimating equations were used to compare the mean IOP and ERG amplitudes between each treatment group and the control group. All analyses were performed with SAS 9.2 software (SAS Institute Inc., Cary, NC), and the difference was considered to be significant when the p value was smaller than 0.05.

rMC-1 cells = experiment: Cell proliferation assay (rMC-1/XTT); type: cell-based; settings: Rattus norvegicus, 120 h, 5 days, XTT, read-out: 50% cytotoxicity concentration (CC50)
Procedure: as §1
rMC-1 cells were plated in 96-well plates at […] per well. Serial dilutions of the compounds were added to the wells in a total volume of 100 µl. The plates were maintained in a 37 °C incubator. After 5 days, 50 µl of a solution of XTT (Roche Molecular Biochemicals, Indianapolis, IN) was added to each well, and the plates returned to the incubator for 30 min, after which the […] (OD) of each well was measured at a wavelength of 450 nanometers. Percent inhibition was determined by comparing the OD of wells containing compound to the OD of control wells.

[2] = Water solubility (observation); type: physicochemical
rabbit eyes = experiment: Toxicity study of HDP-cP-Ara-C in rabbit eyes (intravitreal injection); type: in vivo; settings: for Dark A amp (dark adapted ERG a-wave amplitude) / Dark B amp / Flicker amp / Light A amp / Light B amp: OD, n=4, in µV (unit assumed)
Source text: Sixteen New Zealand Red rabbits were used for this study. Only one eye of each animal was used for the drug testing, and the fellow eye was used as a control by injection of the diluent. […] After the intravitreal injection, the rabbits were examined at week 1, 2, 4, 8, and 12 and then once a month for 7 months. The eyes were monitored with slit-lamp exam, tonometry, indirect ophthalmoscope, and fundus camera. The drug depot size was estimated and recorded using the optic disc area and the drug depot contour in the vitreous. The number of disc areas for estimating the two dimensions of the drug depot and the contour (ball=3, patch=2, filaments and dots=1) provides an estimate of the density of the drug depot. ERGs were recorded from all animals at week 2, week 8, and immediately before the animals were euthanized by deeply anesthetizing the animals with a combined ketamine (24 mg/kg) and xylazine (6 mg/kg) intramuscular injection followed by an intravenous injection of 0.3 ml/kg B-euthanasia (Schering-Plough Animal Health, Kenilworth, NJ).
as §2

[3] = set-up: method as in PMID 1917392; settings: unmodified nucleoside; cited from earlier work

SMILES: CCCCCCCCCCCCCCCCOCCCOP1(=O)CO[C@@H](Cn2ccc(N)nc2=O)CO1 (stereo partly shown) [hexadecyloxypropyl cyclic cidofovir]
- duration of herpes simplex virus suppression (herpes simplex virus): up to 4 months

SMILES: CCCCCCCCCCCCCCCCOCCCOP1(=O)OCC2OC(n3cc(F)c(=O)[nH]c3=O)CC2O1 (stereo not shown) [hexadecyloxypropyl 5-fluoro-2'-deoxyuridine cyclic 3′,5′-monophosphate]
- effect on experimental PVR (experimental PVR): inhibited experimental PVR

SMILES: CCCCCCCCCCCCCCCCOCCCOP(=O)(O)OC[C@H]1O[C@@H](n2ccc(N)nc2=O)[C@@H](O)[C@@H]1O [HDP-P-Ara-C, hexadecyloxypropyl cytarabine 5′-monophosphate]
- CC50 (ARPE-19 cells): 52 ± 2.6 µM
- drug in eluate samples ([1]; day 7 and after): no drug was detected
- drug cleared from the chamber ([1]; within 3 days, flow rate 2 µl/min): 99%
- depot formation in the vitreous (rat eyes; after intravitreal injection): did not form a depot
- ocular toxicity (rat eyes; intravitreal 2-228 µg/eye, 2 weeks): no ocular toxicity was found
- ERG and pathology (rat eyes; intravitreal, 2 weeks): normal retinal physiology and histology
- vitreous drug level (HPLC) (rat eyes; week 2 after intravitreal injection, including highest dose 228 µg/eye): not detectable; also recorded: no drug was detectable; also recorded: no HDP-P-Ara-C was detected
- CC50 (rMC-1 cells): 32 ± 2.2 µM

SMILES: CCCCCCCCCCCCCCCCOCCCOP1(=O)OC[C@H]2O[C@@H](n3ccc(N)nc3=O)[C@@H](O)[C@@H]2O1 (stereo partly shown) [HDP-cP-Ara-C, hexadecyloxypropyl cytarabine 3′,5′-cyclic monophosphate]
- CC50 (ARPE-19 cells): 50 µM
- drug concentration in the eluate (low-level sustained release) ([1]; day 25 to day 36): about 16 ng/mL
- day of peak release ([1]; dissolution chamber eluate): 9 days and ~10 days
- hydrolysis to HDP-P-Ara-C during the dissolution experiment ([1]; eluate analysis, medium printed as PBS, HBSS): slow hydrolysis
- time still detectable in dissolution chamber eluate ([1]; end of experiment, flow rate 2 µL/min): ≥ 36 days
- water solubility [2]: limited aqueous solubility; also recorded: minimally water soluble; also recorded: sparingly water soluble
- TUNEL staining / retinal structure (rabbit eyes; 250 µg intravitreal, paraffin sections vs fellow eye): No structural abnormality or apoptosis; also recorded: normal structures and negative apoptosis staining
- ERG examination (rabbit eyes; 250 µg or lower doses): did not reveal drug toxicity
- eyes with direct contact of drug depot with optic nerve or inferior retina (gliosis, discoloration) (rabbit eyes; 800 µg, 7-month study): two eyes out of the four eyes
- dark adapted a-wave and flicker ERG amplitude vs fellow control eyes (rabbit eyes; 800 µg/eye): significantly lower
- intraocular pressure, injected eyes vs fellow eyes (rabbit eyes; 25-800 µg/eye): no significant difference
- estimated time drug depot would be visible (rabbit eyes; 80 or 250 µg/eye, estimation of vitreal clearance): 3 months
- time drug depots visible (rabbit eyes; all doses (25-800 µg/eye)): ≥ 2 months
- Dark A amp (dark adapted ERG a-wave amplitude) (rabbit eyes; high dose 250 µg/eye): −15.6
- Dark B amp (rabbit eyes; high dose 250 µg/eye): 83.19
- Flicker amp (rabbit eyes; high dose 250 µg/eye): 25.07
- Light A amp (rabbit eyes; high dose 250 µg/eye): −3.57
- Light B amp (rabbit eyes; high dose 250 µg/eye): 49.68
- Dark A amp (dark adapted ERG a-wave amplitude) (rabbit eyes; highest dose 800 µg/eye): −11.69
- Dark B amp (rabbit eyes; highest dose 800 µg/eye): 95.35
- Flicker amp (rabbit eyes; highest dose 800 µg/eye): 21.09
- Light A amp (rabbit eyes; highest dose 800 µg/eye): −5.57
- Light B amp (rabbit eyes; highest dose 800 µg/eye): 48.06
- time drug depot still visible (rabbit eyes; highest dose (800 µg/eye)): ≥ 7 months
- well tolerated dose (rabbit eyes; intravitreal): up to 250 µg/eye
- Dark A amp (dark adapted ERG a-wave amplitude) (rabbit eyes; low dose 25 µg/eye): −14.44
- Dark B amp (rabbit eyes; low dose 25 µg/eye): 88.14
- Flicker amp (rabbit eyes; low dose 25 µg/eye): 22.58
- Light A amp (rabbit eyes; low dose 25 µg/eye): −4.49
- Light B amp (rabbit eyes; low dose 25 µg/eye): 47.93
- Dark B amp (rabbit eyes; moderate dose 80 µg/eye): 79.31
- Flicker amp (rabbit eyes; moderate dose 80 µg/eye): 23.51
- Light A amp (rabbit eyes; moderate dose 80 µg/eye): −5.64
- Light B amp (rabbit eyes; moderate dose 80 µg/eye): 42.83
- AC cell (eyes affected/eyes) (rabbit eyes; week 1, 25 µg): 0/4
- Fundus abnormality (eyes affected/eyes) (rabbit eyes; week 1, 25 µg): 0/4
- Vit. Clarity (eyes affected/eyes) (rabbit eyes; week 1, 25 µg, haze from vitreous hemorrhage during injection): 1/4#
- AC cell (eyes affected/eyes) (rabbit eyes; week 1, 80 µg): 0/4
- Fundus abnormality (eyes affected/eyes) (rabbit eyes; week 1, 80 µg): 0/4
- Vit. Clarity (eyes affected/eyes) (rabbit eyes; week 1, 80 µg): 0/4
- AC cell (eyes affected/eyes) (rabbit eyes; week 1, 250 µg): 0/4
- Fundus abnormality (eyes affected/eyes) (rabbit eyes; week 1, 250 µg): 0/4
- Vit. Clarity (eyes affected/eyes) (rabbit eyes; week 1, 250 µg): 0/4
- AC cell (eyes affected/eyes) (rabbit eyes; week 1, 800 µg): 0/4
- Fundus abnormality (eyes affected/eyes) (rabbit eyes; week 1, 800 µg): 0/4
- Vit. Clarity (eyes affected/eyes) (rabbit eyes; week 1, 800 µg): 0/4
- AC cell (eyes affected/eyes) (rabbit eyes; week 8, 25 µg): 0/4
- Fundus abnormality (eyes affected/eyes) (rabbit eyes; week 8, 25 µg): 0/4
- Vit. Clarity (eyes affected/eyes) (rabbit eyes; week 8, 25 µg): 0/4
- AC cell (eyes affected/eyes) (rabbit eyes; week 8, 80 µg): 0/4
- Fundus abnormality (eyes affected/eyes) (rabbit eyes; week 8, 80 µg): 0/4
- Vit. Clarity (eyes affected/eyes) (rabbit eyes; week 8, 80 µg): 0/4
- AC cell (eyes affected/eyes) (rabbit eyes; week 8, 250 µg): 0/4
- Fundus abnormality (eyes affected/eyes) (rabbit eyes; week 8, 250 µg): 0/4
- Vit. Clarity (eyes affected/eyes) (rabbit eyes; week 8, 250 µg): 0/4
- AC cell (eyes affected/eyes) (rabbit eyes; week 28, 800 µg): 0/4
- Vit. Clarity (eyes affected/eyes) (rabbit eyes; week 28, 800 µg): 0/4
- Fundus abnormality (eyes affected/eyes) (rabbit eyes; week 28, 800 µg, direct contact of depot with medullary ray or inferior retina): 2/4*
- CC50 (rMC-1 cells): 25 µM

SMILES: Nc1ccn([C@@H]2O[C@H](CO)[C@@H](O)[C@@H]2O)c(=O)n1 [cytarabine, 1-β-D-arabinofuranosylcytosine]
- intravitreal half-life [3]: ≤ 12 h
